In patent US20090068143A1, “ORALLY EFFECTIVE C[…]” (priority 2005, published 2009):

Tests used:
[1] = test system: CB1; assay: Real-time RT-PCR gene expression in CNS of MOG induced EAE: CB1; type: in vivo, mouse; details: 40 mg/kg p.o., day 31; over naive animals, normalized to cyclophilin
Experimental: (§1) Total RNA is prepared using SV total RNA isolation system (Promega). The brains and spinal cords, which were removed on day 31 from five animals treated with vehicle (i.e. untreated) or 40 mg/kg p.o. of compound 18F (i.e. treated) in the MOG-induced EAE study, were homogenized in lysis buffer. The lysates were transferred to an RNA isolation column, treated with DNAse, washed and eluted according to kit instructions. RNA concentrations were determined using GeneQuant II (Pharmacia-Amersham). Complementary DNA (cDNA) was synthesized from total RNA using […] II reverse transcriptase (Life Technologies). […] Quantitative real-time RT-PCR included 1 μl of the cDNA, 300 nM of the appropriate forward and reverse primers (according to the gene monitored) and 7.5 μl of the reaction mix containing buffer, nucleotides, Taq polymerase and SYBER green (SYBER Green master mix, Applied Biosystems), in a total reaction volume of 15 μl. […] During each annealing step, the amount of the amplified product was measured by the fluorescence of the double strand DNA binding dye, SYBER Green. The cycle of threshold (CT), representing the PCR cycle at which an increase in fluorescence above a baseline signal can be first detected, was determined for each product. […] Results were expressed as fold increase of gene expression in treated or untreated animals above the naive animals. […]

[2] = biological target: CB1 receptor (Homo sapiens, UniProt P21554); assay: CB1 binding assay
Sequence of CB1 receptor (P21554 whole entry): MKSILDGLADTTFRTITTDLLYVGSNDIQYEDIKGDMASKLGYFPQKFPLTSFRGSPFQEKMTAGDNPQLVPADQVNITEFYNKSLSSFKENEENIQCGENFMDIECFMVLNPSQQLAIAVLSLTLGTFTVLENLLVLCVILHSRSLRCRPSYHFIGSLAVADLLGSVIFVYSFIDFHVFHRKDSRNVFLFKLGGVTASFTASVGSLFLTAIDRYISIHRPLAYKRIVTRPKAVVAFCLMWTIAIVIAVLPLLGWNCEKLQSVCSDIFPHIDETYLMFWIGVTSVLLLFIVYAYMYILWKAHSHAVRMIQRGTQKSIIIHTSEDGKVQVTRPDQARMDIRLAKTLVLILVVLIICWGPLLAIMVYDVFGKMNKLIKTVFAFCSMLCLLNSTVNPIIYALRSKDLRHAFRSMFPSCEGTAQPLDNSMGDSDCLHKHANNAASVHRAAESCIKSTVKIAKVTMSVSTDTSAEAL

[3] = test system: MCP-1; assay: Real-time RT-PCR gene expression in CNS of MOG induced EAE: MCP-1; type: in vivo, mouse; details: 40 mg/kg p.o., day 31, over naive animals
Experimental: as §1

[4] = Stability in aqueous solutions; type: physicochemical; details: 2 mg/ml in phosphate buffer (pH 7.0), 4° C.
Experimental: Stability of compounds of the invention in aqueous solutions was compared. Compounds were dissolved in buffer phosphate solutions and their concentration monitored using HPLC and spectrophotometer methodology. While compound 18F at concentration of 2 mg/ml in phosphate buffer (pH 7.0) was stable for at least 3 months at 4° C., compound 18B at concentration of 95 μg/ml in citrate buffer (pH 7.1) readily hydrolyzed in less than 24 hours at 4° C. Therefore, compounds that were designed following the same rational yielded unexpectedly divergent outcome, for instance in connection with stability in aqueous solutions.

[5] = test system: RAW 264.7 macrophages; assay: NO secretion of LPS activated RAW 264.7 macrophages (ELISA); type: cell-based; details: Mus musculus, RAW264.7, 24 hrs after LPS stimulation
Experimental: RAW 264.7 macrophages, a mouse cell line (ATCC # TIB 71), were grown in Dulbecco's modified Eagle's medium (DMEM) with 4 mM L-glutamine adjusted to contain 1.5 g/L sodium bicarbonate, 4.5 g/L glucose, and 10% heat inactivated fetal bovine serum. Cells were grown in tissue culture flasks and seeded at appropriate density into 6 wells tissue culture plates. Four million Raw cells in half a milliliter were stimulated with 1 μg/ml Lipopolysaccharide E. coli 055:B5 (DIFCO Laboratories). The mouse macrophages were pre-treated for one hour with controls or 10 μM of test compounds, and later on activated with LPS. RNA samples were extracted from the cells 3 hrs after activation and iNOS gene expression levels were analyzed by real-time RT-PCR as previously described. For western blot analysis, compounds were tested at 1, 5 and 10 μM and cells were harvested 24 hrs after LPS stimulation. Supernatant were collected and NO secretion was analyzed using ELISA. Cells were washed 3 times with cold PBS, scrapped and lyzed in 100 μl cell lysis buffer containing 20 mM HEPES, pH 7.6, 150 mM NaCl, 1.5 mM MgCl2, 0.2 mM EDTA, 1% Triton X-100, 10% glycerol, 1 mM DTT, 1 mM PMSF, 10 μg/ml aprotinin. 5 µg/ml leupeptin, 10 mM p-nitrophenyl phosphate, 100 mM β-glycerophosphate, 1 mM sodium fluoride, and 0.1 μM sodium orthovanadate. Cells were lyzed on ice for 10 minutes before further processing. […]

[6] = test system: MOG induced chronic progressive EAE; assay: MOG induced chronic-progressive EAE; details: for animals that reached a clinical score of 0 (fully recovered): 13 animals per group
[7] = test system: PLP induced remitting-relapsing EAE; assay: PLP induced remitting-relapsing EAE
[8] = test system: TNF-α; assay: Real-time RT-PCR gene expression in CNS of MOG induced EAE: TNF-α; type: in vivo, mouse; details: 40 mg/kg p.o., day 31; over naive animals
Experimental: as §1

CCCCCCC(C)(C)c1cc(O)c([C@H]2CC(=O)C3CC2C3(C)C)c(OC(=O)/C=C/C(=O)O)c1 (single isomer, unassigned; (-)) [Compound 18F, (−)-4-{4-[1,1-Dimethylheptyl]-2-fumarate-6-hydroxy-phenyl}-6,6-dimethyl-bicyclo[3.1.1]heptan-2-one]
Fold gene expression CB1, Brain, Treated [1]: 1 fold
Fold gene expression CB1, Spinal Cord, Treated [1]: 1 fold
IC50 [2]: 334 nM
Fold gene expression MCP-1, Brain, Treated [3]: 5.5 fold
Fold gene expression MCP-1, Spinal Cord, Treated ([3]; untreated 19): 68 fold
time stable in solution [4]: at least 3 months
inhibition at 10 µM [5]: 61%
reduction of clinical score, first peak day 14 to 25 ([6]; 20 mg/kg p.o. daily for 19 days from day 13): about 12%
animals that reached a clinical score of 0 (fully recovered) ([6]; 20 mg/kg p.o.): 8%
reduction of clinical score, first peak day 14 to 25 ([6]; 40 mg/kg p.o. daily for 19 days from day 13): 43%
animals that reached a clinical score of 0 (fully recovered) ([6]; 40 mg/kg p.o.): 23%
clinical score for about a week from day 36 ([6]; 60 mg/kg p.o.): about 0.2
reduction of clinical score as compared to control, week from day 36 ([6]; 60 mg/kg p.o.): 80%
reduction of clinical score, first peak day 14 to 25 ([6]; 60 mg/kg p.o. daily for 19 days from day 13): 44%
animals that reached a clinical score of 0 (fully recovered) ([6]; 60 mg/kg p.o.): 31%
clinical score below control at the end of the study ([6]; 60 mg/kg p.o., 20 days after treatment cessation): 30%
clinical score at the end of the study ([6]; 60 mg/kg p.o., 20 days after treatment cessation, control 0.95): 0.65
plateau level clinical score ([6]; 60 mg/kg p.o., control about 1.2): about 0.6
side effects ([6]; high doses p.o., first 10 minutes post administration, eliminated from day 4): Some minor and transient side effects were observed
day of first full recovery ([6]; highest dose (60 mg/kg p.o.), treatment from day 13): 16 days
day of first full recovery ([6]; intermediate dose (40 mg/kg p.o.)): 17 days
day of first full recovery ([6]; lowest dose (20 mg/kg p.o.)): 22 days
reduction of AUC as compared to control group ([6]; separate study, 40 mg/kg p.o.): 36%
AUC of clinical score ([6]; separate study, daily from day 13, 18F 40 mg/kg p.o., COP-1 25 mg/kg s.c., IFN-β 10,000 IU per mouse s.c., control 24.14): 15.47 units
mean group clinical score at the end of the study ([6]; separate study, daily from day 13, 18F 40 mg/kg p.o., COP-1 25 mg/kg s.c., control above 2.4): 1.25
relapse postponed as compared to controls ([7]; 40 mg/kg p.o. daily for 25 days): 5 to 7 days
clinical score of the second peak ([7]; 40 mg/kg p.o. daily for 25 days from day 25, controls 0.7 and 0.8): 0.5
side effects ([7]; 40 mg/kg p.o. for 25 days): No side effects were observed
AUC of clinical score ([7]; 40 mg/kg p.o., day 35 to day 58, control 8.1): 2.1
reduction in AUC as compared to control ([7]; 40 mg/kg p.o., day 35 to day 58, p=0.0025): 74%
average reduction of clinical score ([7]; 40 mg/kg p.o., day 38 till end of study): 28%
Fold gene expression TNF-α, Brain, Treated [8]: 2.5 fold
Fold gene expression TNF-α, Spinal Cord, Treated [8]: 15 fold
